What was measured:
bacterial colonies = test: Industrial cooling tower water, standard immersion test kit; conditions: about 1 ppm CoF3 with about 10 ppm KPS, about 1,000 gallons of water, after 24 hours
Source text: An industrial cooling tower containing about 1,000 gallons of water tested positive for a high bacterial colony count using a standard immersion test kit.

salmonella = test: AOAC culture test of aqueous solutions with salmonella contamination; type: cell-based; conditions: ten minutes exposure
Procedure: Unless otherwise indicated, antimicrobial evaluations of the various fluorinator compounds tested were performed versus control samples in cultures in accordance with the protocol as set forth in AOAC (15th) 1990:965:13 at colony densities indicated in the examples.
Aqueous solutions were prepared having a salmonella contamination at a cell density of about 500,000 cfu/mL. Two solutions of XeF2 were prepared: one as a 1% solution in 85% phosphoric acid stabilizer, and a second solution containing no stabilizer. The materials were cultured versus controls at concentrations of about 2 ppm and about 4 ppm XeF2 and at a pH of about 9.

coliform = test: AOAC culture test of contaminated water, coliform counts; type: cell-based; conditions: about 2 PPM XeF2 with about 20 PPM KPS, pH about 7, 37.4 cfu/mL
Procedure: (§1) These and other aspects of the present invention may be more fully understood with reference to the following examples, which are merely illustrative of the preferred embodiments of the present invention, and are not to be construed as limiting the invention, the scope of which is defined by the appended claims. Unless otherwise indicated, antimicrobial evaluations of the various fluorinator compounds tested were performed versus control samples in cultures in accordance with the protocol as set forth in AOAC (15th) 1990:965:13 at colony densities indicated in the examples.
Contaminated water was prepared and measured to have AOAC coliform counts averaging 37.4 colony forming units per milliliter (cfu/mL). The water was treated by first adding crystal potassium monopersulfate (KPS) stabilizer, commercially available from E.I. DuPont de Nemours & Co. Corp. as OXONE®, and xenon difluoride (XeF2). The concentration in solution of the KPS and XeF2 was about 20 PPM and about 2 PPM respectively, and the pH of the treated solution was about 7.

E. Coli ATCC 81377 = test: Hand soap base culture test; type: cell-based; conditions: about 5 ppm XeF2 in hand soap base, about 320,000 cfu/mL, 30 seconds exposure
Procedure: as §1
(§2) A hand soap base was prepared comprising an aqueous mixture of coconut fatty acid amide and sodium lauryl sulfate surfactants. XeF2 was incorporated into the hand soap base at a level of about 5 ppm and four separate cultures containing various microbes at a level of about 320,000 cfu/mL were evaluated.

[1] = system: Staph Aureus (Methicillin resistance); test: Hand soap base culture test; type: cell-based; conditions: about 5 ppm XeF2 in hand soap base, about 320,000 cfu/mL, 30 seconds exposure
Procedure: as §1, §2

[2] = system: Enterococcus Faecalis (Vancomycin resistance); test: Hand soap base culture test; type: cell-based; conditions: about 5 ppm XeF2 in hand soap base, about 320,000 cfu/mL, 30 seconds exposure
Procedure: as §1, §2

Salmonella ATC 14 = test: Hand soap base culture test; type: cell-based; conditions: about 5 ppm XeF2 in hand soap base, about 320,000 cfu/mL, 30 seconds exposure
Procedure: as §1, §2

[F][Co]([F])[F] [CoF3, cobalt trifluoride]
immersion kit test result on cooling tower water (bacterial colonies): complete destruction of bacterial colonies

F[Xe]F [XeF2, xenon difluoride]
inhibition (salmonella; about 2 ppm XeF2, pH about 9, about 500,000 cfu/mL): about 13.2% | inhibition (salmonella; about 4 ppm XeF2, pH about 9, about 500,000 cfu/mL): about 96.4% | coliform inhibited (coliform; 5 minutes exposure): about 73% | coliform inhibited (coliform; 10 minutes exposure): about 77% | Inhibition (%) (E. Coli ATCC 81377): 99.9% | Inhibition (%) [1]: 99.5% | Inhibition (%) [2]: 99.9% | Inhibition (%) (Salmonella ATC 14): 99.9%

— patent US6579541B2, “Oxidative fluorinator compounds as antimicrobials” (priority 2000, dated 2003)
